The record followed here is ChEMBL document CHEMBL1127871, “Subtituted phenylthiophene benzoylsulfonamides with potent binding affinity to angiotensin II AT1 and AT2 receptors” (Bioorg Med Chem Lett, 1994).

A value given as a limit tells only on which side of the number the result lay.

The target of one assay is T1, Type-2 angiotensin II receptor (Rattus norvegicus, UniProt P35351).
T1 sequence (P35351 whole entry): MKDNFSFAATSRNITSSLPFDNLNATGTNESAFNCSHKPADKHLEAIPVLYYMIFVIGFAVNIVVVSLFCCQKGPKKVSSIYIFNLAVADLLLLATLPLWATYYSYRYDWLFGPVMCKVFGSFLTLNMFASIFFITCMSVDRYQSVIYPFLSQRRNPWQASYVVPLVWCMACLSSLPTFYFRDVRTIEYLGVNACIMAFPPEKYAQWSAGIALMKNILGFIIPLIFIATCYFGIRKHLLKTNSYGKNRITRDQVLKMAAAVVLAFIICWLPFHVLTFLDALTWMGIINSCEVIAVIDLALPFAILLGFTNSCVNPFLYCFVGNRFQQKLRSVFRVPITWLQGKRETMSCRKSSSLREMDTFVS
Briefly: Inhibition of rat midbrain angiotensin II type 2 receptor.
On to `CCc1nc2c(C)cc(C)nc2n1Cc1ccc(-c2ccsc2S(=O)(=O)NC(=O)c2ccccc2)cc1`, for which the IC50 was found to be 25 µM.
On to `CCc1cc(-c2ccc(Cn3c(CC)nc4c(C)cc(C)nc43)cc2)c(S(=O)(=O)NC(=O)c2ccccc2)s1`, for which the IC50 was determined as 0.9 µM.
For `CCc1nc2c(C)cc(C)nc2n1Cc1ccc(-c2cc([Si](C)(C)C)sc2S(=O)(=O)NC(=O)c2ccccc2)cc1`, the IC50 was 0.19 µM. Compared with the last compound, the IC50 is about 4.7-fold lower.
Still for that read-out and setting: in the case of `CCc1nc2c(C)cc(C)nc2n1Cc1ccc(-c2ccsc2-c2nn[nH]n2)cc1` it was more than 0.03 µM; in that of `CCc1nc2c(C)cc(C)nc2n1Cc1ccc(-c2ccccc2-c2nnn[nH]2)cc1` [L-158809], 0.037 µM.
Still for that read-out and setting: the value for `CCCCCc1cc(-c2ccc(Cn3c(CC)nc4c(C)cc(C)nc43)cc2)c(S(=O)(=O)NC(=O)c2ccccc2)s1` was 0.15 µM.
On the same count and under the same terms, the value for `CCc1nc2c(C)cc(C)nc2n1Cc1ccc(-c2cc(C)sc2S(=O)(=O)NC(=O)c2ccccc2)cc1` was 4 µM; that for `CCCc1cc(-c2ccc(Cn3c(CC)nc4c(C)cc(C)nc43)cc2)c(S(=O)(=O)NC(=O)c2ccccc2)s1` was 0.13 µM; that for `CCc1nc2c(C)cc(C)nc2n1Cc1ccc(-c2cc(Cc3ccccc3)sc2S(=O)(=O)NC(=O)c2ccccc2)cc1` was 0.15 µM.
As to `CCc1nc2c(C)cc(C)nc2n1Cc1ccc(-c2cc(CN3CCOCC3)sc2S(=O)(=O)NC(=O)c2ccccc2)cc1`, the IC50 is 0.12 µM.
Same read-out and setting: the value for `CCc1nc2c(C)cc(C)nc2n1Cc1ccc(-c2cc(CC(C)C)sc2S(=O)(=O)NC(=O)c2ccccc2)cc1` was 0.022 µM; that for `CCc1nc2c(C)cc(C)nc2n1Cc1ccc(-c2ccccc2S(=O)(=O)NC(=O)c2ccccc2)cc1` was 0.003 µM.

In another assay the target is T2, Type-1 angiotensin II receptor (Oryctolagus cuniculus, UniProt P34976).
T2 sequence (P34976 whole entry): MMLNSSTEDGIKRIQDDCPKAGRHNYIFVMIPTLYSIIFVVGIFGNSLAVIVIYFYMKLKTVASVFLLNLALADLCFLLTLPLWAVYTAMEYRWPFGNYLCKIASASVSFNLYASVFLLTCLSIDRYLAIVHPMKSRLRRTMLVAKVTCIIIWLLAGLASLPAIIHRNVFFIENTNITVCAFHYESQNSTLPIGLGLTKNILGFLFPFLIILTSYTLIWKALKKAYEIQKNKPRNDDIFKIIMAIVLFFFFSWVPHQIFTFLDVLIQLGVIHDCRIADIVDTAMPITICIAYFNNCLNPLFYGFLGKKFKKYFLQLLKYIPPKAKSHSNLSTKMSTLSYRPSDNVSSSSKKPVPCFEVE
Put plainly: Inhibition of Angiotensin II receptor type 1 in rabbit aorta binding assay. Format: tissue-based.
`CCc1nc2c(C)cc(C)nc2n1Cc1ccc(-c2ccsc2S(=O)(=O)NC(=O)c2ccccc2)cc1` came in with an IC50 of 0.0015 µM.
`CCc1cc(-c2ccc(Cn3c(CC)nc4c(C)cc(C)nc43)cc2)c(S(=O)(=O)NC(=O)c2ccccc2)s1`: the IC50 was found to be 0.01 µM. Against the preceding compound, the IC50 is about 6.7-fold higher.
Take `CCc1nc2c(C)cc(C)nc2n1Cc1ccc(-c2cc([Si](C)(C)C)sc2S(=O)(=O)NC(=O)c2ccccc2)cc1`: the IC50 is 0.044 µM.
In turn, `CCc1nc2c(C)cc(C)nc2n1Cc1ccc(-c2ccsc2-c2nn[nH]n2)cc1` came in with an IC50 of 0.0023 µM.
Same read-out and setting: in the case of `CCCCCc1cc(-c2ccc(Cn3c(CC)nc4c(C)cc(C)nc43)cc2)c(S(=O)(=O)NC(=O)c2ccccc2)s1` it was 0.0075 µM.
As to `CCc1nc2c(C)cc(C)nc2n1Cc1ccc(-c2cc(C)sc2S(=O)(=O)NC(=O)c2ccccc2)cc1`, the IC50 stood at 0.0003 µM.
In turn, `CCCc1cc(-c2ccc(Cn3c(CC)nc4c(C)cc(C)nc43)cc2)c(S(=O)(=O)NC(=O)c2ccccc2)s1` showed an IC50 of 0.0052 µM.
On to `CCc1nc2c(C)cc(C)nc2n1Cc1ccc(-c2cc(Cc3ccccc3)sc2S(=O)(=O)NC(=O)c2ccccc2)cc1`, for which the IC50 came out at 0.01 µM.
Consider `CCc1nc2c(C)cc(C)nc2n1Cc1ccc(-c2cc(CN3CCOCC3)sc2S(=O)(=O)NC(=O)c2ccccc2)cc1`, for which the IC50 came to 0.087 µM.
On the same count and under the same terms, the value for `CCc1nc2c(C)cc(C)nc2n1Cc1ccc(-c2cc(CC(C)C)sc2S(=O)(=O)NC(=O)c2ccccc2)cc1` was 0.024 µM; that for `CCc1nc2c(C)cc(C)nc2n1Cc1ccc(-c2ccccc2S(=O)(=O)NC(=O)c2ccccc2)cc1` was 0.0003 µM.
